Reference: the supplement of paper PMC11451515

Legend:
Assay in all cases: AUC of viability dose-response curve (% viability x log10 dose units); higher = less sensitive
Settings in all cases: 48 h
[1] = system: NOMO1
In short: (§1)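 Area under the curve was integrated by trapezoidal rule from a log-logistic fit of normalised viability, with curves exceeding full viability scaled and quality-control failures removed. The fit had four parameters over log10 doses. Viability came from CellTiter-Glo One luminescence, normalised per plate to DMSO and cell-free wells, after leukemia cells adapted to each medium (500 or 1000 cells/well, 1536-well plates) were exposed to library compounds in DMSO for 48 h at 37°C. The 11 threefold doses ran from 47 μM to 0.79 nM.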

[2] = system: P12-Ichikawa
In short: as §1

[3] = system: SEM cells
In short: as §1

[4] = RPMI 5 mM glucose + 10% dialyzed FBS

SMILES	AUC of viability dose-response curve ([1]; HPLM + 10% dialyzed FBS)	AUC of viability dose-response curve ([1]; RPMI 5 mM glucose + 10% FBS)	AUC of viability dose-response curve [1, 4]	AUC of viability dose-response curve ([2]; HPLM + 10% dialyzed FBS)	AUC of viability dose-response curve ([2]; RPMI 5 mM glucose + 10% FBS)	AUC of viability dose-response curve [2, 4]	AUC of viability dose-response curve ([3]; HPLM + 10% dialyzed FBS)	AUC of viability dose-response curve ([3]; RPMI 5 mM glucose + 10% FBS)	AUC of viability dose-response curve [3, 4]
CC/1=C(/C(CC(=O)N1)C2=CC=C(C=C2)C(F)(F)F)C(=O)NC3=C(F)C=C4[NH]N=CC4=C3 (stereo unspecified)	422	389	415	442	450	448	405	418	411
Cc1cc(C(=O)N2CCN(c3cccc(Cl)c3)CC2)n(-c2ccccc2)n1	364	389	375	349	373	374	354	368	357
COc1cc([C@H]2Oc3cc([C@H]4Oc5cc(O)cc(O)c5C(=O)[C@@H]4O)ccc3O[C@@H]2CO)ccc1O	470	465	452	464	446	456	455	473	467
COC(=O)C1C2CC3c4[nH]c5cc(OC)ccc5c4CCN3CC2CC(OC(=O)c2cc(OC)c(OC)c(OC)c2)C1OC (stereo unspecified)	465	454	468	467	471	445	462	459	456
N[S+](=O)([O-])c1cccc2c1C(=O)c1cccc(O)c1C2=O	434	452	443	439	451	447	343	295	278
N#Cc1ccnc(Nc2cc(C3CCN(C4COC4)CC3)cc(N3CCC(F)(F)C3)n2)c1	430	429	426	455	441	439	424	415	408
NC(=O)c1cccc2nc(-c3ccc([C@H]4CCCN4)cc3F)[nH]c12	464	472	466	463	466	465	398	363	362
[O-]C(=O)C1=C(C(=C(Cl)C(=C1Cl)Cl)Cl)C/2=C/3\C=C(I)/C(=O)/C(=C3OC4=C2C=C(I)C(=C4I)[O-])I	474	451	457	446	450	445	466	464	462
O=C(Oc1ccc([N+](=O)[O-])cc1)N1CCC(C(O)(c2ccc3c(c2)OCO3)c2ccc3c(c2)OCO3)CC1				439	432	411	396	379	418
CN(C)CCOc1ccc(-c2nc(-c3ccncc3)c(-c3ccc4c(c3)CC/C4=N\O)[nH]2)cc1	450	465	437	456	454	452	458	455	466
CN(C)CC[C@H](c1ccc(Cl)cc1)c1ccccn1	378	382	412	413	388	379	376	438	414
c1ccc(CNc2nc(N3CCOc4ccccc43)nc3c2CCCC3)cc1	468	473	470	461	476	472	455	428	451
CCCCC(C=O)NC(=O)C(CC(C)C)NC(=O)OCc1ccccc1 (stereo unspecified)	409	410	424	422	393	377	430	439	393
CC(C)c1cc(C(=O)N2Cc3ccc(CN4CCN(C)CC4)cc3C2)c(O)cc1O	320	317	323	374	342	348			
CC(C)C[C@H](NC(=O)CNC(=O)c1cc(Cl)ccc1Cl)B(O)O							190	190	177
Nc1nnc(-c2cccc(Cl)c2Cl)c(N)n1							425	402	418
CN1CCN2c3ncccc3Cc3ccccc3C2C1 (stereo unspecified)				470	460	463			
CC[C@@]1(O)C(=O)OCC/2=C1/C=C3\N(CC4=CC5=CC(=CC=C5N=C34)O)C2=O	251	261	271	180	176	181			
CC1(C)CNc2cc(NC(=O)c3cccnc3NCc3ccncc3)ccc21	419	468	470	461	446	455			
